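48-hour exposure; five concentrations; linearly interpolated endpoints. TGI is the concentration that stops growth completely.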
Columns and labels:
Test in all cases: NCI-60 cell line screen, 48 h
EKVX NSCLC = tested on: EKVX NSCLC
MDA-MB-435 = tested on: MDA-MB-435
NCI-H460 lung = tested on: NCI-H460 lung
OVCAR-5 ovarian = tested on: OVCAR-5 ovarian
PC-3 prostate = tested on: PC-3 prostate
SR leukemia = tested on: SR leukemia
SW-620 colon = tested on: SW-620 colon
TK-10 renal = tested on: TK-10 renal
U251 CNS = tested on: U251 CNS
UACC-62 melanoma = tested on: UACC-62 melanoma

Compound | TGI (EKVX NSCLC) [µM] | TGI (MDA-MB-435) [µM] | TGI (NCI-H460 lung) [µM] | TGI (OVCAR-5 ovarian) [µM] | TGI (PC-3 prostate) [µM] | TGI (SR leukemia) [µM] | TGI (SW-620 colon) [µM] | TGI (TK-10 renal) [µM] | TGI (U251 CNS) [µM] | TGI (UACC-62 melanoma) [µM]
CC(C)(C)OC(=O)N1C(c2cccnc2)=CC[C@H]2C3CC=C(c4cccnc4)[C@@]3(C)CC[C@@H]21 (stereo not given in full) | 10.3 | 5.7 | 14.1 | 28.6 | 19.3 | 22.2 | 15.8 | 19.7 | 12 | 8.31
N#Cc1ccc(-n2c3ccccc3c3ccc4c(c32)C(=O)C=CC4=O)cc1 | 5.58 | 4.39 | 44.2 | 34.8 | 8.98 | 6.92 | 3.31 | 8.83 | 17.8 | 15.6
O=C1C(c2c(O)[nH]c3ccc(Br)cc23)=Nc2ccccc21 | 20.2 | 40.1 | 44.6 | 26 | 17.8 | > 100 | > 100 | 27.8 | 26.2 | 28
C/C(=N\NC(=S)NCCCNC(=S)N/N=C(\C)c1ccccn1)c1ccccn1 | > 63.9 | > 43.5 | 10.1 | > 90.3 | > 91.5 | 6.19 | > 100 | 24.2 | > 47.1 | 14.2
CC(C)(C)c1cc(O)ccc1O | > 100 | > 71.2 | > 21.6 | > 100 | 5.3 | 26.6 | > 100 | 22.2 | 5.56 | > 100
CCOC(=O)C(SCCO)C(C(=O)OCC)n1ccc(=O)[nH]c1=O (stereo not given) | > 100 | > 58.5 | > 100 | 47.6 | > 100 | 34 | 46.8 | > 100 | 82.9 | 67.3
BrC(c1cccc2ccccc12)c1cccc2ccccc12 | 56.4 | 21.2 | 30.4 | 84.9 | 54.1 | > 100 | 45.5 | > 100 | 30.6 | 27.7
CCCCCCCCCCNC(=O)CCC(NC(=O)c1ccc(N(C)Cc2cnc3nc(N)nc(N)c3n2)cc1)C(=O)NCCCCCCCCCC (stereo not given) | > 78.3 | 15.4 | 13.1 | 66.1 | 37.8 | > 24.5 | 13.5 | > 92.7 | 14.1 | 49.5
CC(=O)Nc1ccc(C2SCc3nc4ccccc4n32)cc1 (stereo not given) | > 100 | > 100 | > 100 | > 100 | > 100 | > 100 | > 100 | > 100 | > 100 | > 100

— PubChem BioAssay (NCI)
